Results from patent US8822407B2, “Preparation of conjugates comprising adenine derivatives and allergenic proteins and their use for specific immunotherapy of allengenic diseases” (Universita' Degli Studi di Firenze, priority 2010, dated 2014).

What was measured:
[1] = system: purified CD14+ cells; assay: Cytokine production by purified CD14+ cells (ELISA of supernatants, 36 hrs); format: cell-based, human; conditions: Table B, dose 2 μg/ml
Method: Circulating mononuclear cells (MNC) are isolated by density gradient (Ficoll-Hypaque) using buffy coats from 14 normal donors (Servizio Immunotrasfusionale e terapie cellulari, Azienda Ospedaliera Universitaria A. Meyer, Firenze). 200×10^6 MNC are separated by the use of a commercial kit (CD14 isolation kit, Miltenyi) by the addition of 400 μl anti-CD14 monoclonal antibody bound to iron beads followed by isolation on magnetic columns (LS column). 50×10^6 monocytes are recovered by positive selection and are extensively washed with calcium and magnesium-free sterile PBS and then seeded in complete medium plus 10% foetal calf serum in 24 flat bottomed plates at the concentration of 1×10^6/ml. […] The plates are incubated for 36 hrs at 37° C. in 5% CO2 humidified atmosphere and the supernatants are collected after centrifugation at 1200 rpm, aliquoted and then stored at −20° C. up to the assay. […]
(§1) For the determination of cytokines and chemokines of the innate immunity, commercial ELISAs have been used: IL-12p40 (Cytoscreen, Biosource Int, Camarillo, Calif.), IFN-alfa (Cytoscreen), TNF-alfa (Cytoscreen), IL-10 (Pharmingen), IL-6 and CXCL10 (R&D System). 100 μl/well of single supernatants are incubated in flat bottomed plates as specified by the productors and the amounts of the single cytokines are expressed as pg/ml on the basis of a reference curve by using recombinant cytokines.

[2] = system: purified BDCA4+ cells; assay: Cytokine production by purified BDCA4+ cells (plasmacytoid dendritic cells), ELISA; format: cell-based, human
Method: The preparation of purified BDCA4+ cells has been obtained in a similar way starting from MNC of buffy coats of the same 14 healthy donors. […] By positive selection 5×10^6 plasmacytoid dendritic cells (PDCs) are recovered, extensively washed with calcium and magnesium-free sterile PBS and seeded in complete medium plus 10% foetal calf serum in 24-flat bottomed plates at the concentration 1×10^6/ml. […] The plates are incubated for 36 hrs at 37° C. in 5% CO2 humidified atmosphere and the supernatants are collected after centrifugation at 1200 rpm, aliquoted and then stored at −20° C. up to the assay. […]
as §1

[3] = target: T1, human TLR7 (Homo sapiens, UniProt Q9NYK1); assay: TLR7 activation, NF-kB luciferase reporter in transfected HEK293 cells; format: cell-based; conditions: human TLR7-encoding plasmid
T1 construct: expressed in transfected cells; host or cells: HEK293 (transient Nucleofection, Amaxa)
T1 sequence (Q9NYK1 27-1049): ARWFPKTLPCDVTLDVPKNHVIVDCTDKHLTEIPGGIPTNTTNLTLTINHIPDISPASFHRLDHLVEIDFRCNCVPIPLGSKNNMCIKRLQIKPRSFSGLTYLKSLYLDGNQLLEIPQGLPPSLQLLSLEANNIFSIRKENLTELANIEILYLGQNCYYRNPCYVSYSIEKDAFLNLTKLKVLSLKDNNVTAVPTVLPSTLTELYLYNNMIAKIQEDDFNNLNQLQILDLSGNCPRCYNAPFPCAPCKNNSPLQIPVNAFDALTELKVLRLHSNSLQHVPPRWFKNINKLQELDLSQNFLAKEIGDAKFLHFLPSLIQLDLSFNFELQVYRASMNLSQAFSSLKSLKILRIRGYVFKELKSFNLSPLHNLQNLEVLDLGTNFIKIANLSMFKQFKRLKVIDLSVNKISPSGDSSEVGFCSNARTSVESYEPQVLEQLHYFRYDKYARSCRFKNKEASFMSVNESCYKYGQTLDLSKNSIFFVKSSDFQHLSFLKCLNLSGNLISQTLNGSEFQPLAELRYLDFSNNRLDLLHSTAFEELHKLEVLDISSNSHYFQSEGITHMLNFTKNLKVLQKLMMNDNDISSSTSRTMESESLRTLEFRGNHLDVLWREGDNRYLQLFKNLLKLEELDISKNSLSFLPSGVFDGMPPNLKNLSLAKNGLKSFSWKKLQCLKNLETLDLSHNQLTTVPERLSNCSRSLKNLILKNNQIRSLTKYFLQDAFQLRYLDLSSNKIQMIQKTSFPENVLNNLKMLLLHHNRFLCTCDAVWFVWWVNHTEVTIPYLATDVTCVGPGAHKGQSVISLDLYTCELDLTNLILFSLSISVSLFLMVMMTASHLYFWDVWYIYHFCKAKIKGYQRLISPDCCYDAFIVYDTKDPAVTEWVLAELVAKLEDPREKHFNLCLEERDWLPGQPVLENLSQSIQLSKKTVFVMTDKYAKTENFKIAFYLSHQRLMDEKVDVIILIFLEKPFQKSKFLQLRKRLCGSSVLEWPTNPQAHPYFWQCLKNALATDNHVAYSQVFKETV
Method: HEK293 cells are detached by trypsin from the plastic surface of the culture bottle, extensively washed with calcium and magnesium-free PBS, counted and adjusted at the concentration 1×10^6 cells/tube in polypropylene V-bottomed tubes. After the final wash, the cells are pelleted and 100 μl transfection buffer (Amaxa) is added together with […], TLR7, TLR8 or TLR9-encoding and ELAM-1 promoter NF-kB luciferase reporter plasmids. The mixture thus obtained is transferred in special cuvettes and transient transfection is obtained in a special apparatus which is able to directly introduce genetic material into the nucleus (Nucleofection®, Amaxa GmbH). The cells are then recovered and cultured at 1×10^5/ml in 48-flat bottomed plates in E-MEM medium plus 5% foetal calf serum for 18 hrs. […] Finally the luciferase activity is measured in the cellular lysates by a commercial kit (Promega).

[4] = Table C, Donor #1, R-848, dose not printed in table (2 μg/ml elsewhere in the source)
[5] = Table C, Donor #2, R-848 (2 μg/ml)
[6] = Table F, Donor #1, dose 2 μg/ml
[7] = Table F, Donor #2, dose 2 μg/ml

With `CCOCc1nc2c(N)nc3ccccc3c2n1CC(C)(C)O` [Conj R-848, reference compound] the “IL-6 production (mean ± SE)” value [1] was 45.8 ± 15.2 ng/mL, the “IL-10 production (mean ± SE)” value [1] was 2.0 ± 0.5 ng/mL and the “IL-12p40 production (mean ± SE)” value [1] was 16.9 ± 6.3 ng/mL. The “TNF-alfa production (mean ± SE)” value [1] was 16.3 ± 4.9 ng/mL, the IFN-alfa production [2, 4] was 3154 pg/mL and the IL-6 production [2, 4] was 746 pg/mL. It also gave an IL-10 production [2, 4] of 1500 pg/mL, a TNF-alfa production [2, 4] of 10368 pg/mL and an IFN-alfa production [2, 5] of 6187 pg/mL. For the same compound, the IL-6 production [2, 5] was 308 pg/mL, the IL-10 production [2, 5] was 753 pg/mL and the TNF-alfa production [2, 5] was 20990 pg/mL. The “IFN-alfa production (mean ± SE)” value ([2]; Table D, dose 2 μg/ml) was 5.6 ± 2.5 ng/mL, the “IL-6 production (mean ± SE)” value ([2]; Table D, dose 2 μg/ml) was 7.7 ± 2.6 ng/mL and the “IL-10 production (mean ± SE)” value ([2]; Table D, dose 2 μg/ml) was 1.0 ± 0.6 ng/mL. For the same compound, the “TNF-alfa production (mean ± SE)” value ([2]; Table D, dose 2 μg/ml) was 5.4 ± 1.4 ng/mL, the IFN-alfa production [2, 6] was 1131 pg/mL and the IL-6 production [2, 6] was 44302 pg/mL. The IL-10 production [2, 6] was 1864 pg/mL, the TNF-alfa production [2, 6] was 4832 pg/mL and the IFN-alfa production [2, 7] was 1605 pg/mL. It also gave an IL-6 production [2, 7] of 37603 pg/mL, an IL-10 production [2, 7] of 1305 pg/mL and a TNF-alfa production [2, 7] of 6898 pg/mL. For the same compound, the “cytokine production from BDCA4+ cells (in words)” value ([2]; text to Tables C and D) was “high levels of IFN-alfa, IL-10 and CXCL10” and the “TLR7 activation (NF-κB luciferase) in transfected HEK293 cells” value [3] was “able to induce NF-κB expression”.
